This note sets out measurements from patent US12357603B2, “Acyl sulfonamides for treating cancer” (Bayer Aktiengesellschaft, priority 2019, dated 2025).

Each structure is given as a SMILES string. Read-outs that look alike come from different tables or passages of the source.

One test relates to ZR-75-1 cells. Kind of test: Proliferation assay ZR-75-1 (Alamar Blue, 144 h). In kind it is cell-based. As to conditions: arithmetic mean, read-out: ZR75-1 proliferation assay, EC50 [M] (arithmetic mean). The method, boiled down:
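Cells seeded at 3000/well in RPMI 1640 with 2.5% FBS and treated 24 h later across 2.0×10E-5 to 2.0×10E-9 M (9 dilutions, 0.2% DMSO, triplicate). After 144 h at 37 °C, 5% CO2, viability read by Alamar Blue fluorescence at 590 nm following 2 h reagent incubation.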
For orientation: Alamar Blue is a resazurin reagent that responds to reducing activity.

The subject of test [1] is ESR1 transcription (luciferase signal in MVLN cells). In words: Repression of ESR1 transcription, luciferase reporter in MVLN cells. To be noted: inhibition of luciferase signal in MVLN cells, arithmetic mean. In kind it is cell-based. In short, it runs like this:
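MVLN cells (constitutive ER, stably carrying a Vitellogenin A2 hormone-responsive element–luciferase reporter) treated in duplicate; luciferase read after 24 h. Cell density checked by Alamar Blue fluorescence (530/590 nm) after 2 h to exclude cell-loss effects.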
(Reporter assays use an easily measured gene product as a stand-in for the process of interest.)

The subject of another test is THP-1 cells. Kind of test: Proliferation assay THP-1 (Alamar Blue, 144 h). In kind it is cell-based. As to conditions: Homo sapiens, THP1, acute monocytic leukemia, read-out: proliferation assays. On the procedure: (§1) Assessment of the Anti-Proliferative Effect of Compounds in Different Cell Lines
(§2) To determine further cancer indications that respond to treatment with KAT6A or KAT6B3 inhibitors various cell lines carrying a KAT6A and/or KAT6B3 focal amplification or high KAT6A and/or KAT6B3 protein expression were used for proliferation assays with selected compounds.
(§3) 24 hours later, cells were treated with compounds (stock solution, 10 mM in DMSO) using the HP D300 Digital Dispenser in a concentration range of 2.0×10E-5 M to 2.0×10E-9 M in a single-dot curve with 9 dilutions and a DMSO concentration of 0.2%. Each sample was prepared as triplicate and rim wells were excluded. Plates were incubated at 37° C. and 5% CO2 for 144 h. Cell viability was measured by adding 10 μL of Alamar Blue Reagent (Invitrogen #DAL 1100) and plates were incubated for 2 h at 37° C. and 5% CO2. Fluorescence was measured at 590 nm wavelength with a Tecan Spark or Victor X3 MTP-Reader (PerkinElmer).

A further test concerns MDA-MB-436 cells. In words: Proliferation assay MDA-MB-436, negative control cell line (Alamar Blue, 144 h). In kind it is cell-based. To be noted: arithmetic mean. In short, it runs like this: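 MDA-MB-436 cells (3000/well, DMEM/Ham's F12 with 2.5% FBS) treated 24 h after plating with compounds at 2.0×10E-5 to 2.0×10E-9 M (9 dilutions, 0.2% DMSO), triplicates, 144 h at 37 °C, 5% CO2. Viability by Alamar Blue, 2 h, fluorescence at 590 nm.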

For the next test, the system named is EFM-19 cells. Kind of test: Proliferation assay EFM-19 (Alamar Blue, 144 h). In kind it is cell-based. To be noted: Homo sapiens, EFM19, breast carcinoma, read-out: proliferation assays. On the procedure: as §1, §2, §3
The subject of the next test is DMS 53 cells. Kind of test: Proliferation assay DMS 53 (Alamar Blue, 144 h). As to conditions: Homo sapiens, DMS53, small cell lung cancer, read-out: proliferation assays. In kind it is cell-based. On the procedure: as §1, §2, §3
For another test, the system named is COLO 684 cells. Kind of test: Proliferation assay COLO 684 (Alamar Blue, 144 h). In kind it is cell-based. As to conditions: Homo sapiens, COLO684, uterus adenocarcinoma, read-out: proliferation assays. On the procedure:
as §1, §2, §3

Another test concerns LNCAP cells. In words: Proliferation assay LNCAP (Alamar Blue, 144 h). To be noted: Homo sapiens, prostate carcinoma, 10 nM R1881, read-out: proliferation assays. In kind it is cell-based. On the procedure:
as §1, §2, §3

Another test deals with JMSU-1 cells. Kind of test: Proliferation assay JMSU-1 (Alamar Blue, 144 h). In kind it is cell-based. To be noted: JMSU1, bladder carcinoma, read-out: proliferation assays. On the procedure:
as §1, §2, §3

The target in test [2] is Recombinant human His-tagged Kat6a protein (amino acids 194-810) (Homo sapiens (Human), UniProt Q92794). In words: Kat6a activity assay (TR-FRET, acetylation of biotinylated Histone-H4-derived peptide). In kind it is biochemical. As to conditions: 60 mins at 22° C., read-out: KAT6A-DPF/HAT domain IC50 [mol/l] (arithmetic mean). In short, it runs like this: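 Sf9-expressed human His-Kat6a (aa 194-810) incubated 60 min at 22 °C with compounds (0.01-20 μM) in Tris pH 8 buffer containing 220 nM biotinylated H4 peptide (aa 1-24) and 600 nM acetyl-CoA. Acetyl-K8 detected by TR-FRET (665/620 nm ratio); IC50 by four-parameter fit versus DMSO controls.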
Sequence of Recombinant human His-tagged Kat6a protein (amino acids 194-810) (Q92794 194-810): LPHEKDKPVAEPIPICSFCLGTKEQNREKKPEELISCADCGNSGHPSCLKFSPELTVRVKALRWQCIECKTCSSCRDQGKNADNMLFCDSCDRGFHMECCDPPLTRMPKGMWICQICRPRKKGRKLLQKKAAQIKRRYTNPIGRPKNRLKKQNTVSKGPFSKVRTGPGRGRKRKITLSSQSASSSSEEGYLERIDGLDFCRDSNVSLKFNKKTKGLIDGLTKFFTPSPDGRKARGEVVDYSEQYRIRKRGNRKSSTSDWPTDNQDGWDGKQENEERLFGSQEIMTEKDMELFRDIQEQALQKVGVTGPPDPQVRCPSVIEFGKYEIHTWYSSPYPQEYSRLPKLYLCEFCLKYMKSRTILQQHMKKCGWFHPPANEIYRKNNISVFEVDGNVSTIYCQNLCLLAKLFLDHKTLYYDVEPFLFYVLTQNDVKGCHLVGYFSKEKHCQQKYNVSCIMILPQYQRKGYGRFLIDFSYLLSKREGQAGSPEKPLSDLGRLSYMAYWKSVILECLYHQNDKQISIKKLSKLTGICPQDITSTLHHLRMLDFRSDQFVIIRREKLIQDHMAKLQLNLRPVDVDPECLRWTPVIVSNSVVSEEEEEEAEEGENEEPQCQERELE

The test system of another test is T47D cells. In words: Proliferation assay T47D (Alamar Blue, 144 h). In kind it is cell-based. As to conditions: Homo sapiens, breast ductal carcinoma, read-out: proliferation assays. On the procedure: as §1, §2, §3
Another test has as its system LCLC-97TM1 cells. Kind of test: Proliferation assay LCLC-97TM1 (Alamar Blue, 144 h). As to conditions: Homo sapiens, LCLC97TM1, large cell lung carcinoma, read-out: proliferation assays. In kind it is cell-based. On the procedure: as §1, §2, §3
For the next test, the system named is DMS 114 cells. Kind of test: Proliferation assay DMS 114 (Alamar Blue, 144 h). In kind it is cell-based. To be noted: Homo sapiens, DMS114, small cell lung cancer, read-out: proliferation assays. On the procedure:
as §1, §2, §3

Test [3] deals with Recombinant human GST-tagged Kat6b protein (431-end). Kind of test: Kat6b activity assay (TR-FRET, acetylation of biotinylated Histone-H4-derived peptide). In kind it is biochemical. As to conditions: 30 mins at 22° C., read-out: KAT6B activity assay IC50 [mol/l] (arithmetic mean).
The test system of another test is CAMA-1 cells. Kind of test: Proliferation assay CAMA-1 (Alamar Blue, 144 h). In kind it is cell-based. To be noted: Homo sapiens, CAMA1, breast adenocarcinoma, read-out: proliferation assays. On the procedure: as §1, §2, §3
In test [4] the target is Recombinant human GST-tagged Kat6b protein (431-end) (Homo sapiens, UniProt Q8WYB5). Kind of test: Kat6b activity assay (TR-FRET, acetylation of biotinylated Histone-H4-derived peptide). In kind it is biochemical. As to conditions: 30 mins at 22° C., read-out: KAT6B activity assay IC50 [mol/l] (arithmetic mean). Background: TR-FRET usually uses a lanthanide donor and a delayed reading to cut background.
Sequence of Recombinant human GST-tagged Kat6b protein (431-end) (Homo sapiens, UniProt Q8WYB5) (Q8WYB5 whole entry, looked up): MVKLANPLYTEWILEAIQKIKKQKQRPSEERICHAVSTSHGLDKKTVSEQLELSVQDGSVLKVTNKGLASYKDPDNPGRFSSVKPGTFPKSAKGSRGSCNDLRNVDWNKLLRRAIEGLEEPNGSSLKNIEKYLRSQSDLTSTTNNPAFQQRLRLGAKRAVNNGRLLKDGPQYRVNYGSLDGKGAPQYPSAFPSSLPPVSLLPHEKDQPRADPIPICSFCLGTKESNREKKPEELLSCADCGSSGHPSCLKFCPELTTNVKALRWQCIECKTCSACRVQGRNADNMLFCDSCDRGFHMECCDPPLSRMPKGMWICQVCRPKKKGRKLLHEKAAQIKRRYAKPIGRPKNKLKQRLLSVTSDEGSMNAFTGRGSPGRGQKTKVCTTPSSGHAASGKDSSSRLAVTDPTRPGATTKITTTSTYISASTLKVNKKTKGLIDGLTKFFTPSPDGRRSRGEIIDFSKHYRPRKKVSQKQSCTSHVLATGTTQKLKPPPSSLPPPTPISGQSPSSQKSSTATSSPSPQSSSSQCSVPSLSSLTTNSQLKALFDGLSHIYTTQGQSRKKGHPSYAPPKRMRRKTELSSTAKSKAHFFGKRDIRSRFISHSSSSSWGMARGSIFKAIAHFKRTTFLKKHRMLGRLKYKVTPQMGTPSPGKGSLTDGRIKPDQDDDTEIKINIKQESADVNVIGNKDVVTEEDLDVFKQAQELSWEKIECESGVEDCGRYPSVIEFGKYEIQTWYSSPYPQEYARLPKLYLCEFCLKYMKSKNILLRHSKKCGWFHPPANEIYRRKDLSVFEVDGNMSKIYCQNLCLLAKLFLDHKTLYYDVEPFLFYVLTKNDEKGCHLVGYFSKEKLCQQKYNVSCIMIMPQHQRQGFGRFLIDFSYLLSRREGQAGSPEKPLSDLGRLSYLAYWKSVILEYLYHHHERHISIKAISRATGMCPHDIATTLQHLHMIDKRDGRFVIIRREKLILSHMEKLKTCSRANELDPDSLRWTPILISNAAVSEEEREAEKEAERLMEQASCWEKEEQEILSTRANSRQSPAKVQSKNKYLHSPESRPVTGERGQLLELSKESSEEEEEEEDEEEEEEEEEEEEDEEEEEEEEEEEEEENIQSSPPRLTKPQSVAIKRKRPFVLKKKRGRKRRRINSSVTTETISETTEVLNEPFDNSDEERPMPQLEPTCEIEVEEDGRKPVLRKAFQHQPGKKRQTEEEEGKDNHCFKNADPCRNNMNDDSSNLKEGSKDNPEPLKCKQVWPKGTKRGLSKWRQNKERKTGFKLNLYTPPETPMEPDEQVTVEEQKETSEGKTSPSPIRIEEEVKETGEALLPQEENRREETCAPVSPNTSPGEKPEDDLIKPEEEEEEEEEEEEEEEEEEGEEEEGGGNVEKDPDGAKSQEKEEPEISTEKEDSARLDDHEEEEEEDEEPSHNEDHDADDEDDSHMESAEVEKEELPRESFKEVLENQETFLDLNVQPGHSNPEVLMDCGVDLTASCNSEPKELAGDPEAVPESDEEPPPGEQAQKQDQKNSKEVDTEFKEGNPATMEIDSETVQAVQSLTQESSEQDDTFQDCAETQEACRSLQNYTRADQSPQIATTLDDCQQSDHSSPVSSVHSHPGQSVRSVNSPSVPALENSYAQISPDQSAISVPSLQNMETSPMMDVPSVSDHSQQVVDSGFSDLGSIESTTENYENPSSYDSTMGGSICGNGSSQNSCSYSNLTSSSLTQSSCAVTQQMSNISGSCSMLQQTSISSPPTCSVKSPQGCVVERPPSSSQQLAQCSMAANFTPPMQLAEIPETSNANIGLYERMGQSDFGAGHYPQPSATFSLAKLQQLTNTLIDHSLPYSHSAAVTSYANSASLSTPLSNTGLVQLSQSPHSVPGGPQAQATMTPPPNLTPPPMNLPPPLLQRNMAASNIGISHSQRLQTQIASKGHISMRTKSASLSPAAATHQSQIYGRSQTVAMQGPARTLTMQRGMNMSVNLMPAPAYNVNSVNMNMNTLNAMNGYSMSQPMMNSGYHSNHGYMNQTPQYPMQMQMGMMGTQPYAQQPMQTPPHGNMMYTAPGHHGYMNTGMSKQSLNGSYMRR

Where [5] appears, read: Homo sapiens, MDA-MB-436, 144 h.

With `CN(C)c1ccc2cc(C(=O)NS(=O)(=O)c3ccccc3-c3ccccc3)oc2c1` [Example 14, N-([1,1′-Biphenyl]-2-sulfonyl)-6-(dimethylamino)-1-benzofuran-2-carboxamide], the EC50 in the test with ZR-75-1 cells was 1.2e-07 M; in the test with THP-1 cells, 0.238 µM; in the test with MDA-MB-436 cells (setting [5]) it was 18.4 µM; with EFM-19 cells it was 0.223 µM; in the test on DMS 53 cells it was 0.49 µM; in the test with COLO 684 cells, 0.184 µM. The EC50 with LNCAP cells is 4.16 µM; with JMSU-1 cells, 0.605 µM. In test [1] (Homo sapiens, MVLN), this compound returned an IC50 of 0.121 µM.
As for `CCOc1ccccc1S(=O)(=O)NC(=O)c1cc2ccc(N(C)C)cc2o1` [Example 19, 6-(Dimethylamino)-N-(2-ethoxybenzene-1-sulfonyl)-1-benzofuran-2-carboxamide], the IC50 came out at 0.0846 µM in test [2], 0.0422 µM in test [1] and 0.0669 µM in test [3]. Besides, the EC50 is 5.96e-08 M with ZR-75-1 cells; 0.17 µM with T47D cells; 0.0958 µM with THP-1 cells; greater than 20 µM in the test on MDA-MB-436 cells; 0.105 µM with EFM-19 cells; 0.13 µM with DMS 53 cells. The EC50 with LCLC-97TM1 cells came to 0.447 µM; in the test on DMS 114 cells, 0.136 µM; in the test on COLO 684 cells, 0.156 µM; in the test on LNCAP cells it was 1.63 µM; with CAMA-1 cells, 0.268 µM; with JMSU-1 cells, 0.0706 µM.
Regarding `CC(C)c1ccc(OCC2CC2(F)F)c(S(=O)(=O)NC(=O)c2cc3ccc(N(C)C)cc3o2)c1` (racemic) [Example 186, N-((2-((2,2-difluorocyclopropyl)methoxy)-5-isopropylphenyl)sulfonyl)-6-(dimethylamino)benzofuran-2-carboxamide (rac)], the IC50 in test [2] turned out to be 0.00847 µM; in test [1] (Homo sapiens, MVLN) it was 0.0236 µM; in test [4], 0.0261 µM. For the same compound, the EC50 is 5.59e-08 M in the test with ZR-75-1 cells (Homo sapiens, ZR-75-1, 144 h) and greater than 20 µM in the test with MDA-MB-436 cells (setting [5]).
On to `CCCOc1ccccc1S(=O)(=O)NC(=O)c1cc2ccc(N(C)C)cc2o1` [Example 23, 6-(Dimethylamino)-N-(2-propoxybenzene-1-sulfonyl)-1-benzofuran-2-carboxamide], for which the IC50 in test [2] was found to be 0.0793 µM; in test [1] (Homo sapiens, MVLN), 0.098 µM; in [3], 0.0992 µM. Besides, the EC50 was 2.34e-08 M in the test on ZR-75-1 cells (Homo sapiens, ZR-75-1, 144 h); 0.197 µM with T47D cells; greater than 20 µM in the test with MDA-MB-436 cells (setting [5]); 0.155 µM with EFM-19 cells; 0.367 µM in the test with DMS 53 cells; 0.157 µM with LCLC-97TM1 cells. Further, the EC50 in the test on DMS 114 cells is 0.205 µM; in the test on COLO 684 cells, 0.0929 µM; in the test on LNCAP cells, greater than 20 µM; in the test with CAMA-1 cells it was 0.415 µM.
In the case of `CC(C)c1ccc(OC2CCC2)c(S(=O)(=O)NC(=O)c2cc3ccc(N(C)C)cc3o2)c1` [Example 184, N-((2-Cyclobutoxy-5-isopropylphenyl)sulfonyl)-6-(dimethylamino)benzofuran-2-carboxamide], the IC50 was found to be 0.0159 µM in test [2]; 0.0225 µM in test [1] (Homo sapiens, MVLN); 0.0478 µM in [4]. Also, the EC50 was 6.98e-07 M in the test on ZR-75-1 cells (Homo sapiens, ZR-75-1, 144 h) and greater than 20 µM in the test with MDA-MB-436 cells (setting [5]).
`CN(C)c1ccc2cc(C(=O)NS(=O)(=O)c3cccc4c3OC(F)(F)C(F)(F)O4)oc2c1` [Example 134, 6-(Dimethylamino)-N-(2,2,3,3-tetrafluoro-2,3-dihydro-1,4-benzodioxine-5-sulfonyl)-1-benzofuran-2-carboxamide]: the IC50 in [2] stood at 0.0307 µM; in test [1] it was 0.0768 µM; in test [4], 0.0259 µM. Also, the results for the EC50 in the test on ZR-75-1 cells and with MDA-MB-436 cells were 1.26e-07 M and greater than 20 µM, respectively.
